Assay results taken from patent US9475841B2, “Melanoma antigen peptide and uses thereof” (INSERM (INSTITUT NATIONAL DE LA SANTE ET DE LA RECHERCHE …, priority 2012, dated 2016).

Tests used:
Format in all cases: cell-based, human
[1] = test system: MELOE-1 specific CD4+ T cells; experiment: MELOE-1 CD4+ T cell responses in PBMC from healthy donors: restimulation of microcultures with overlapping peptides, CD4/TNF-α staining; settings: for Microcultures containing MELOE-1 specific CD4+ T cells (TNF-α production): positive/tested microcultures; for donors in which CD4 responses against the region were detected: seven healthy donors
Method: PBMC from healthy donors were stimulated with 10 μM of MELOE-1. After 14 days, the presence of CD4 T cells specific for the different regions of MELOE-1 was assessed by restimulating cells with MELOE-12-21, MELOE-111-30, MELOE-118-37 and MELOE-126-46 peptides, followed by CD4/TNF-α double staining and flow cytometry analysis. Between brackets is indicated the mean % of TNF-α producing CD4 T cells, in positive microcultures. NA: not available.
(§1) PBMC from healthy donors or melanoma patients (2·10^5 cells/well) were cultured for 14 days with 10 μM of MELOE-1 whole antigen (46 amino acids) in RPMI medium supplemented with 8% HS, 50 IU/ml of rIL-2 (Chiron, France) and L-Glutamin, in 96-well multiplates. Microcultures were then restimulated individually with each overlapping peptide (MELOE-12-21, MELOE-111-30, MELOE-118-37, MELOE-12646 or MELOE-122-46 for melanoma patients) in the presence of 10 μg/mL brefeldin A for 5 hours and the percentage of CD4^+ specific T cells was assessed by TNF-α, IFN-γ or IL-4 intracellular staining. A negative control without peptide was included in all experiments.
Our purpose was to look for the existence of class II helper epitopes all along MELOE-1 sequence (SEQ ID NO:20), in order to document the immunogenicity of the different regions of this melanoma antigen. We stimulated 2·10^7 PBMC from seven healthy donors with MELOE-1 whole antigen and tested, after a 14-day culture period the presence of CD4 T cells specific for each region of the protein. Microcultures were screened for TNFα production by CD4+ T cells, after restimulation with four MELOE-1 derived overlapping peptides (Table I), in an autopresentation assay. […] On the contrary, the central region 18-37, containing an already described DR11-restricted epitope (24-37) located just at the end of this 20-mer peptide (Rogel et al., 2011), induced specific responses in microcultures deriving from only 2/7 donors (HD9 and HD17, both expressing the DR11 element). In these two donors, we detected 6 and 7% of positive microcultures, containing between 0.6 to 3.7% of TNFα producing CD4 T cells.

[2] = test system: CD4 T cell clone 4E2-DQβ1*0201; experiment: Cytokine profile of CD4 T cell clone stimulated with cognate peptide (intracellular staining); settings: cognate peptide 10 μM, 5 hours
Method: Lymphocytes were stimulated for 5 hours in the presence of brefeldin A (10 μg/mL) either with peptide alone (10 μM) in an autopresentation assay or with B-EBV or HLA-class II expressing melanoma cells pulsed 2 hours with the cognate peptide, at a ratio 1:2. In some experiments, blocking mAb against HLA-DP (clone B7.21 from Dr Charron, UMR940, Paris), HLA-DQ (clone SPVL3, Beckman Coulter) or HLA-DR (clone L243, BD Biosciences) were added at a concentration of 12.5 μg/ml. Cells were then stained with APC-conjugated anti-CD4 mAb, fixed with 4% paraformaldehyde, labeled with PE-conjugated anti-cytokine mAb and analyzed by flow cytometry.
We also documented the T helper profile of each T cell clone, by stimulating the CD4 T cell clones with the cognate peptide, and analyzing cytokine production. All the clones expressed Th1 cytokines (TNFα, IFNγ, IL2 and GM-CSF). On the contrary, these clones differ in their expression of Th2 cytokines. Indeed, the two DQ2 restricted T cell clones (9C12 and 4E2) and the DR1 restricted one (5F9) also strongly express two Th2 cytokines (IL4, and IL13), whereas the DR11-restricted T cell clone only weakly expressed IL4 (Table IV). None of the CD4 T cell expresses IL10 or IL5 at a significant level.

[3] = test system: MELOE-1 specific CD4 T cells; experiment: MELOE-1 CD4+ T cell responses in PBMC from melanoma patients: restimulation with peptides, CD4/IFN-γ (Th1) and CD4/IL4 (Th2) staining; settings: for mean % of cytokine producing CD4 T cells, in positive microcultures (IFN-γ): Th1; for mean % of cytokine producing CD4 T cells, in positive microcultures (IL4): Th2; for Th1 responses (IFN-γ positive microcultures) / Th2 responses (IL4 positive microcultures): positive/tested microcultures
Method: PBMC from melanoma patients were stimulated with 10 μM of MELOE-1. After 14 days, the presence of CD4 T cells specific for the different regions of MELOE-1 was assessed by restimulating cells with MELOE-12-21, MELOE-111-30 and MELOE-122-46 peptides, followed by CD4/IFN-γ double staining for the detection of Th1 responses, and by CD4/IL4 double staining for Th2 responses. Between brackets is indicated the mean % of cytokine producing CD4 T cells, in positive microcultures.
as §1
In order to confirm the immunogenicity of each MELOE-1 regions in melanoma patients, we stimulated melanoma patients PBMC with the MELOE-1 whole protein, and tested the reactivity of stimulated lymphocytes towards the three most immunogenic regions: 2-21, 11-30, and 22-46. For this study, instead of challenging microcultures with the 18-37 peptide, that appeared poorly immunogenic, we extended the C-terminus region from 26-46 to 22-46, in order to also detect responses to our previously described HLA-DR11-restricted epitope (24-37). […] We tested the induction of CD4 specific responses from MELOE-1 stimulated PBMC of […] melanoma patients. We documented CD4 responses specific for the central region of MELOE-1 (11-30) for 7/9 patients, whereas responses specific for MELOE-12-21 and MELOE-122-46 were respectively detected in 4/9 and 5/9 patients (Table III). These responses were mainly Th1 responses (IFN-g production) while less frequent Th2 responses specific for the three regions of MELOE-1 were detected in 3/9 patients for MELOE-12-21, 2/9 patients for MELOE-111-30 and 5/9 patients for MELOE-122-46 (Table III). […] Concerning Th2 responses, much less frequent, the C-term region appeared to induce more frequently the growth of IL-4 producing CD4 T cells than the two other regions (FIG. 2A). […] In summary, stimulation of patient's PBMC with MELOE-1 induced Th1 responses specific for diverse epitopes located all along the protein sequence, and among the different regions, the central region (11-30) and the C-term region (22-46) appeared to be especially immunogenic in term of frequency of responses.

[4] = donor HD9 (DPβ1*0902/1501, DQβ1*0301, DRβ1*1104/1201)
[5] = donor HD17 (DPβ1*0401/0301, DQβ1*0301/0603, DRβ1*1101/1301)
[6] = donor HD22 (DPβ1*0401/1101, DQβ1*0202, DRβ1*0701)
[7] = donor HD24 (DPβ1*0401/0101, DQβ1*0501/0602, DRβ1*0101/1501)
[8] = donor HD25 (DPβ1*0401/0402, DQβ1*0201, DRβ1*0301)
[9] = donor HD27 (DQβ1*501/0201, DRβ1*0101/0301)

## PSEGAACPPWHPSERISSTL [MELOE-118-37]
[1]; donor HD9
  mean % of TNF-α producing CD4 T cells, in positive microcultures: (1.4% ± 0.6)
[1]; [4]
  Microcultures containing MELOE-1 specific CD4+ T cells (TNF-α production): 6/96
[1]; donor HD17
  mean % of TNF-α producing CD4 T cells, in positive microcultures: (3% ± 0.7)
[1]; [5]
  Microcultures containing MELOE-1 specific CD4+ T cells (TNF-α production): 7/96
[1]; [6]
  Microcultures containing MELOE-1 specific CD4+ T cells (TNF-α production): 0/96
[1]; [7]
  Microcultures containing MELOE-1 specific CD4+ T cells (TNF-α production): 0/96
[1]; [8]
  Microcultures containing MELOE-1 specific CD4+ T cells (TNF-α production): 0/96
[1]; [9]
  Microcultures containing MELOE-1 specific CD4+ T cells (TNF-α production): 0/96
[1]; donor HD28 (DRβ1*0301)
  Microcultures containing MELOE-1 specific CD4+ T cells (TNF-α production): 0/48
[1]; healthy donor HD9 (first of the two donors named)
  % of positive microcultures: 6%
[1]; healthy donor HD17 (second of the two donors named)
  % of positive microcultures: 7%
[1]
  donors in which CD4 responses against the region were detected: 2/7

## PWHPSERISSTLNDECWPASL [MELOE-126-46]
[1]; donor HD9
  mean % of TNF-α producing CD4 T cells, in positive microcultures: (1.5% ± 0.5)
[1]; [4]
  Microcultures containing MELOE-1 specific CD4+ T cells (TNF-α production): 5/96
[1]; donor HD17
  mean % of TNF-α producing CD4 T cells, in positive microcultures: (5.2% ± 4.1)
[1]; [5]
  Microcultures containing MELOE-1 specific CD4+ T cells (TNF-α production): 10/96
[1]; donor HD22
  mean % of TNF-α producing CD4 T cells, in positive microcultures: (1% ± 0.1)
[1]; [6]
  Microcultures containing MELOE-1 specific CD4+ T cells (TNF-α production): 2/96
[1]; [7]
  Microcultures containing MELOE-1 specific CD4+ T cells (TNF-α production): 0/96
[1]; donor HD25
  mean % of TNF-α producing CD4 T cells, in positive microcultures: (1.1% ± 0.9)
[1]; [8]
  Microcultures containing MELOE-1 specific CD4+ T cells (TNF-α production): 15/96
[1]; [9]
  Microcultures containing MELOE-1 specific CD4+ T cells (TNF-α production): 0/96
[1]; donor HD28 (DRβ1*0301)
  Microcultures containing MELOE-1 specific CD4+ T cells (TNF-α production): 0/96
[1]
  donors in which CD4 responses against the region were detected: 4 out of 7
[2]
  Cytokine profile: GM-CSF: GM-CSF^high
  Cytokine profile: IFN: IFN^high
  Cytokine profile: IL2: IL2^high
  Cytokine profile: IL4: IL4^high
  Cytokine profile: IL5: IL5^low
  Cytokine profile: IL10: IL10^neg
  Cytokine profile: IL13: IL13^high
  Cytokine profile: TNF: TNF^high

## AACPPWHPSERISSTLNDECWPASL [MELOE-122-46]
[3]; 576 tested microcultures from melanoma patients, IFN-γ
  Th1 responses, % of tested microcultures: 9.6%
[3]; melanoma patients, IL4
  patients in which Th2 responses were detected: 5/9
[3]; melanoma patients, Table III, Th1 (IFN-γ)
  patients in which CD4 responses specific for the region were detected: 5/9
[3]; patient Pt ≠ 1
  mean % of cytokine producing CD4 T cells, in positive microcultures (IFN-γ): (4.8% ± 7.2)
  mean % of cytokine producing CD4 T cells, in positive microcultures (IL4): (0.8% ± 0.3)
  Th1 responses (IFN-γ positive microcultures): 11/48
  Th2 responses (IL4 positive microcultures): 4/48
[3]; patient Pt ≠ 2
  mean % of cytokine producing CD4 T cells, in positive microcultures (IFN-γ): (0.6% ± 0.02)
  Th1 responses (IFN-γ positive microcultures): 2/96
  Th2 responses (IL4 positive microcultures): 0/96
[3]; patient Pt ≠ 3 (DPβ1*0201/2001, DQβ1*0303/0501, DRβ1*0101/0701)
  Th1 responses (IFN-γ positive microcultures): 4/96
[3]; patient Pt ≠ 3
  mean % of cytokine producing CD4 T cells, in positive microcultures (IFN-γ): (1.9% ± 1.3)
  Th2 responses (IL4 positive microcultures): 0/96
[3]; patient Pt ≠ 4
  Th1 responses (IFN-γ positive microcultures): 0/48
  Th2 responses (IL4 positive microcultures): 0/48
[3]; patient Pt ≠ 5
  mean % of cytokine producing CD4 T cells, in positive microcultures (IL4): (0.8%)
  Th1 responses (IFN-γ positive microcultures): 0/48
  Th2 responses (IL4 positive microcultures): 1/48
[3]; patient Pt ≠ 6
  Th1 responses (IFN-γ positive microcultures): 0/48
  Th2 responses (IL4 positive microcultures): 0/48
[3]; patient Pt ≠ 7
  mean % of cytokine producing CD4 T cells, in positive microcultures (IFN-γ): (2.9% ± 3.5)
  mean % of cytokine producing CD4 T cells, in positive microcultures (IL4): (1.5% ± 0.7)
  Th1 responses (IFN-γ positive microcultures): 28/48
  Th2 responses (IL4 positive microcultures): 7/48
[3]; patient Pt ≠ 8
  mean % of cytokine producing CD4 T cells, in positive microcultures (IFN-γ): (0.5%)
  mean % of cytokine producing CD4 T cells, in positive microcultures (IL4): (0.6%)
  Th1 responses (IFN-γ positive microcultures): 1/48
  Th2 responses (IL4 positive microcultures): 1/48
[3]; patient Pt ≠ 9
  mean % of cytokine producing CD4 T cells, in positive microcultures (IL4): (0.7% ± 0.15)
  Th1 responses (IFN-γ positive microcultures): 0/48
  Th2 responses (IL4 positive microcultures): 3/48
